Data reported in PMC4370192, “Discovery of Specific Inhibitors for Intestinal E. coli β-Glucuronidase through In Silico Virtual Screening” (The Scientific World Journal, 2015).

How the values were obtained:
[1] = biological target: T1, E. coli β-glucuronidase (eβG) (Escherichia coli, UniProt P05804); assay: In vitro βG-activity assay (pNPG hydrolysis), eβG; format: biochemical
T1 construct: histidine tag (N); made in house; host or cells: E. coli BL21 (DE3)
Protocol: (§1) Plasmid pRESTB containing βG gene and a histidine tag at the N-terminus was constructed as described. Recombinant βG (human and E. coli) was produced by isopropyl β-D-thiogalactopyranoside (IPTG) induction of BL21 (DE3) bacteria. βG was purified from bacterial supernatants by affinity chromatography on nickels Sepharose 6 Fast Flow (GE Healthcare). The column was washed by phosphate-buffered saline (PBS), with 50 mM imidazole, and βG was eluted by PBS with 250 mM imidazole. The purified βG was desalted on a Sephadex G-25 column equilibrated with PBS and stored at −80°C.
The candidate compounds were purchased from SPECS (The Netherlands). Each candidate was provided as a solid power and dissolved in 100% DMSO (Sigma-Aldrich) to 10 mM as stock. Candidates were screened for their inhibition specificity of eβG versus hβG, which were conducted at pH 7.3 or pH 5.4, in triplicate, respectively. 40 μL purified βG was treated with 10 μL compound solution at 37°C for 30 min and sequentially incubated with 50 μL of pNPG (Sigma-Aldrich) at 37°C for 30 min. Reactions were quenched with 5 μL of 2 N sodium hydroxide (Sigma-Aldrich). Each reaction consisted of 3.75 ng purified βG, 50 μM compound, and 5 mM pNPG in PBS containing 10% DMSO and 0.05% BSA (Sigma-Aldrich). βG-activities were measured by color development of pNP detected on a microplate reader at OD 405 nm. […] For IC50 determination, compounds at various concentrations (100 μM to 0.001 μM) were added.
Supplementary file 740815.f1.pdf: Fifty-nine candidate compounds were acquired from the initial virtually screening which was designed to target the bacterial loop of eβG and its active site. The docking energy scores of 59 candidate compounds measured by the DOCK program are -43 to -55 kcal/mol. (Table S1) The candidate compounds were purchased from SPECS (Zoetermeer, The Netherlands). Each candidate was rovided as a solid power and dissolved in 100% DMSO (Sigma-Aldrich, MO, USA) to 10 mM as stock. Candidates were screening for their inhibition specificity of eβG verse hβG, which were conducted at pH 7.3 or pH 5.4 in triplicate, respectively. 40 µL purified βG was treated with 10 µL compound solution at 37 °C for 30 min, and sequentially incubated with 50 µL of pNPG (Sigma-Aldrich) at 37 °C for 30 min. Reactions were quenched with 5 µL of 2 N sodium hydroxide (Sigma-Aldrich). Each reaction consisted of 3.75 ng purified βG, 50 µM compound, and 5 mM pNPG in PBS containing 10% DMSO and 0.05% BSA (Sigma-Aldrich). βG-activities were measured by color development of pNP detected on a microplate reader at OD 405 nm. […] Especially, the inhibiting ability against eβG activity was >95% in 7 candidates of eβG specific inhibitors (Table S1).
(§2) Fifty-nine candidate compounds were acquired from the initial virtually screening which was designed to target the bacterial loop of eβG and its active site. The docking energy scores of 59 candidate compounds measured by the DOCK program are -43 to -55 kcal/mol. (Table S1) The candidate compounds were purchased from SPECS (Zoetermeer, The Netherlands). Each candidate was provided as a solid power and dissolved in 100% DMSO (Sigma-Aldrich, MO, USA) to 10 mM as stock. Candidates were screening for their inhibition specificity of eβG verse hβG, which were conducted at pH 7.3 or pH 5.4 in triplicate, respectively. 40 μL purified βG was treated with 10 μL compound solution at 37 °C for 30 min, and sequentially incubated with 50 μL of pNPG (Sigma-Aldrich) at 37 °C for 30 min. Reactions were quenched with 5 μL of 2 N sodium hydroxide (Sigma-Aldrich). Each reaction consisted of 3.75 ng purified βG, 50 μM compound, and 5 mM pNPG in PBS containing 10% DMSO and 0.05% BSA (Sigma-Aldrich). βG-activities were measured by color development of pNP detected on a microplate reader at OD 405 nm. […]
percent of βG activity compared with the untreated control.
Especially, the inhibiting ability against eβG activity was >95% in 7 candidates of eβG specific inhibitors (Table S1).
Table S1. […]

human βG (hβG) = biological target: T2, human βG (hβG) (Homo sapiens, UniProt P08236); assay: In vitro βG-activity assay (pNPG hydrolysis), hβG; format: biochemical
T2 construct: histidine tag (N); made in house; host or cells: E. coli BL21 (DE3)
T2 sequence (P08236 23-651): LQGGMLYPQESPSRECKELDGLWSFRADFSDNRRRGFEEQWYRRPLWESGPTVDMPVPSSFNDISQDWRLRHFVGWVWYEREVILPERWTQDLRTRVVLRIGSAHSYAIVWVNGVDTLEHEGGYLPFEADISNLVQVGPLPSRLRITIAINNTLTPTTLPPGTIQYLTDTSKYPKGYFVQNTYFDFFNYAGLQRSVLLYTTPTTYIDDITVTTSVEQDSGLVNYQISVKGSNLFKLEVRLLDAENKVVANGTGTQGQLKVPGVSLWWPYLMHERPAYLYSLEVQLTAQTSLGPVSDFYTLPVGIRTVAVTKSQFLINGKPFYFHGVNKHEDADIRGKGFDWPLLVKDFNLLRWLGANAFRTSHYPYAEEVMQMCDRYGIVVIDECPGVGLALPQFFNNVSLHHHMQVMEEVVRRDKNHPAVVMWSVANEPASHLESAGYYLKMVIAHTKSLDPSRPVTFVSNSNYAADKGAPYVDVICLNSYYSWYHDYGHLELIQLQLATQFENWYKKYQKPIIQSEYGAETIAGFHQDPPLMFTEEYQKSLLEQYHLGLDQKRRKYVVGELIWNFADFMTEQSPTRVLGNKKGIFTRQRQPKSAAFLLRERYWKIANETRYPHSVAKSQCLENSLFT
Protocol: as §1
The candidate compounds were purchased from SPECS (The Netherlands). Each candidate was provided as a solid power and dissolved in 100% DMSO (Sigma-Aldrich) to 10 mM as stock. Candidates were screened for their inhibition specificity of eβG versus hβG, which were conducted at pH 7.3 or pH 5.4, in triplicate, respectively. 40 μL purified βG was treated with 10 μL compound solution at 37°C for 30 min and sequentially incubated with 50 μL of pNPG (Sigma-Aldrich) at 37°C for 30 min. Reactions were quenched with 5 μL of 2 N sodium hydroxide (Sigma-Aldrich). Each reaction consisted of 3.75 ng purified βG, 50 μM compound, and 5 mM pNPG in PBS containing 10% DMSO and 0.05% BSA (Sigma-Aldrich). βG-activities were measured by color development of pNP detected on a microplate reader at OD 405 nm.
as §2, with “(Table” for “Fifty-nine candidate compounds were acquired from the initial virtually screening which was designed to target the bacterial loop of eβG and its active site. The docking energy scores of 59 candidate compounds measured by the DOCK program are -43 to -55 kcal/mol. (Table”, “rovided” for “provided”, “µL” for “μL”, “µM” for “μM”
candidate compounds were purchased from SPECS (Zoetermeer, The Netherlands). Each candidate was provided as a solid power and dissolved in 100% DMSO (Sigma-Aldrich, MO, USA) to 10 mM as stock. Candidates were screening for their inhibition specificity of eβG verse hβG, which were conducted at pH 7.3 or pH 5.4 in triplicate, respectively. 40 μL purified βG was treated with 10 μL compound solution at 37 °C for 30 min, and sequentially incubated with 50 μL of pNPG (Sigma-Aldrich) at 37 °C for 30 min. Reactions were quenched with 5 μL of 2 N sodium hydroxide (Sigma-Aldrich). Each reaction consisted of 3.75 ng purified βG, 50 μM compound, and 5 mM pNPG in PBS containing 10% DMSO and 0.05% BSA (Sigma-Aldrich). βG-activities were measured by color development of pNP detected on a microplate reader at OD 405 nm.

[2] = 50 μM compound, pH 7.3, percent of activity vs untreated control
[3] = pH 5.4, percent of activity vs untreated control
[4] = read-out: inhibition of eβG activity

T1 sequence (P05804 whole entry): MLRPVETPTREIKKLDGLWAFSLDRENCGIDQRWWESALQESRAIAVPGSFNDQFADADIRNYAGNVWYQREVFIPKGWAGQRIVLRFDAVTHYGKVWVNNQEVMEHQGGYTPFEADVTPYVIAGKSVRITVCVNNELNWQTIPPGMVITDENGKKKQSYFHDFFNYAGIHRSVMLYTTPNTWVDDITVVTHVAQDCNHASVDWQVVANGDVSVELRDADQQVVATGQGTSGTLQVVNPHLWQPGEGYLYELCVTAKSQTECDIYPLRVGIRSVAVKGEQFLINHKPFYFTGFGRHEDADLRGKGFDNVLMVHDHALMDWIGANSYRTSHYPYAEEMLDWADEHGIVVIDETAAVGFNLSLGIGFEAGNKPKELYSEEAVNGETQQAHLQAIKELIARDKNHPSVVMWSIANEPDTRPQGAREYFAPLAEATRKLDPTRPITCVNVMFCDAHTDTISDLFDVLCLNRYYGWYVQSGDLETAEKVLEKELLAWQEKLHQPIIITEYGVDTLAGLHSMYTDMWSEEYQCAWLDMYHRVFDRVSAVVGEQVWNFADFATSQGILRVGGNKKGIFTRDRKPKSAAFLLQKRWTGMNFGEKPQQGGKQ

| SMILES | eβG activity (%) with 50 μM compound [1, 2] [%] | hβG activity (%) with 50 μM compound (human βG (hβG); [3]) [%] | further results |
| --- | --- | --- | --- |
| COc1cc(C(=O)N2CCNCC2)cc(OC)c1OC [Compound 6368] | 44.87 | 116.03 | – |
| N/C(=N\c1nc2c(c(=O)[nH]1)CCC2)Nc1ccccc1 [Compound 5905] | 24.93 | 104.96 | – |
| CC(=O)Nc1ccc(S(=O)(=O)Oc2ccc([N+](=O)[O-])cc2)cc1 [Compound 7100] | 20.58 | 112.56 | – |
| CC1(C)CC(O)C(C(O)c2cccc([N+](=O)[O-])c2)C(C)(C)N1 (centres unmarked) [Compound 4021] | 28.56 | 103.06 | – |
| O=C1c2ccccc2C(=O)c2c1cccc2S(=O)(=O)Nc1ccc(Cl)cc1 [Compound 8074] | 22.15 | 109.09 | – |
| N=c1c(Nc2ccc(F)cc2)nnc(N)n1C(=O)c1ccccc1 [Compound 2074] | 12.46 | 101.07 | – |
| Cc1cccc(C(=O)NC2(C(F)(F)F)C(=O)Nc3c2c(=O)[nH]c(=O)n3-c2ccc(Cl)cc2)c1 (centres unmarked) [Compound 8572] | 17.66 | 102.81 | – |
| CCN1C(=O)c2cccc3c(S(=O)(=O)N4CCN(C)CC4)ccc1c23 [Compound 1046] | 45.94 | 106.69 | – |
| Cc1cc(/C=C2\SC(=Nc3ccc(F)cc3)NC2=O)c(C)n1-c1ccc(S(N)(=O)=O)cc1 [Compound 1135] | 3.70 | 118.10 | – |
| COc1cc(C(=O)OC(C)CN2CCN(C)CC2)cc(OC)c1OC (centres unmarked) [Compound 3250] | 33.62 | 96.94 | – |
| CN1CCN(Cc2nc3sc4c(c3c(=O)[nH]2)CCCC4)CC1 [Compound 3181] | 30.27 | 88.02 | – |
| CC(C)(C)c1ccc(S(=O)(=O)/N=C2\C=CC(=O)c3ccccc32)cc1 [Compound 7145] | – | – | activity at 50 µM [1, 2]: 1%; inhibition at 10 µM [1, 4]: 55%; inhibition at 50 µM [1, 4]: > 95%; IC50 ([1]; recombinant eβG, pNPG substrate, pH 7.3): 31.6 µM; effect on hβG activity (human βG (hβG); 50 μM compound): does not hamper hβG activity; activity at 50 µM (human βG (hβG); 50 μM compound, pH 5.4, percent of activity vs untreated control): 120% |
| CN1CCN(C(=O)c2cc3cc([N+](=O)[O-])ccc3oc2=O)CC1 [Compound 2715] | 53.06 | 114.38 | – |
| COc1ccc(Cl)cc1NC(=O)CC(C(=O)O)N1CCNCC1 (centres unmarked) [Compound 9183] | 39.67 | 107.36 | – |
| N#Cc1cc2[nH]c(=O)c(=O)[nH]c2cc1[N+](=O)[O-] [Compound 5012] | 14.96 | 108.51 | – |
| O=C(O)c1ccc(NS(=O)(=O)c2ccc(Br)cc2)cc1O [Compound 4465] | 10.04 | 99.50 | – |
| CC(CNS(=O)(=O)c1ccc(Cl)cc1)n1cncn1 (centres unmarked) [Compound 3379] | 31.70 | 102.56 | – |
| N=c1c2sc3nc4ccccc4n3c2ncn1N [Compound 6015] | 10.40 | 72.07 | – |
| N=C1C(c2nc3ccccc3c(=O)[nH]2)=C(O)CN1c1cccc(Cl)c1 [Compound 7036] | 6.70 | 95.45 | – |
| Cc1cccnc1NCn1c(=O)oc2cc([N+](=O)[O-])ccc21 [Compound 3043] | 25.14 | 103.55 | – |
| Cn1c(O)c(C=NC(Cc2c[nH]c3ccccc23)C(=O)O)c(=O)n(C)c1=O (centres unmarked) [Compound 5033] | 9.33 | 116.12 | – |
| CS(=O)(=O)c1ccc2nc(NC(=O)c3ccccc3C(=O)O)sc2c1 [Compound 9107] | 29.70 | 105.37 | – |
| COc1ccc2ccccc2c1CNCC1CCNCC1 [Compound 9927] | 25.00 | 113.80 | – |
